Experiment [1] concerns the target T1, porcine beta-2 adrenoceptor (Sus scrofa, UniProt Q28997).
T1 construct: expressed in transfected cells; host or cells: CHO cells
Nature of the experiment: cAMP assay in CHO cells transfected with the porcine beta-2 adrenoceptor (DiscoveRx Hit Hunter cAMP II). Format: cell-based. The note with it: CHO cells transfected with porcine beta-2 adrenoceptor, 30 minutes incubation with compound. Here is the method:
(§1) CHO cells transfected with the bovine or porcine beta-2 adrenceptors were maintained in culture in DMEM/HAMS F12+10% FBS+2 mM glutamine+500 μg/ml geneticin (for the porcine receptor the medium was supplement with 1.5 mM HEPES) at 37° C. with a 5% CO2 atmosphere.
(§2) Cells were plated into 96 well viewplates in medium and incubated overnight at 37° C. with a 5% CO2 atmosphere. The cells were pre-incubated with 0.5 mM IBMX in PBS for 30 minutes prior to incubation with increasing concentrations of experimental compound (5×10^−12 to 10^−5M) for 30 minutes at 37° C. with a 5% CO2 atmosphere. At the end of the incubation time the compound was removed and the cells assayed for cAMP using the DiscoveRx Hit Hunter cAMP II™ assay kit.
(§3) Duplicate samples were run for each experimental compound and the data generated was analysed using EC50 analysis software in Graphpad Prism.
For orientation: Changes in cAMP serve as a functional read-out for many G protein-coupled receptors.

Experiment [2] addresses T2, bovine beta-2 adrenoceptor (Bos taurus, UniProt Q28044).
T2 construct: expressed in transfected cells; host or cells: CHO cells
Nature of the experiment: cAMP assay in CHO cells transfected with the bovine beta-2 adrenoceptor (DiscoveRx Hit Hunter cAMP II). Format: cell-based. Particulars: CHO cells transfected with bovine beta-2 adrenoceptor, 30 minutes incubation with compound. On the procedure:
as §1, §2, §3

Where a name gives a salt, the structure may show the parent alone.

T2 sequence (Q28044 whole entry): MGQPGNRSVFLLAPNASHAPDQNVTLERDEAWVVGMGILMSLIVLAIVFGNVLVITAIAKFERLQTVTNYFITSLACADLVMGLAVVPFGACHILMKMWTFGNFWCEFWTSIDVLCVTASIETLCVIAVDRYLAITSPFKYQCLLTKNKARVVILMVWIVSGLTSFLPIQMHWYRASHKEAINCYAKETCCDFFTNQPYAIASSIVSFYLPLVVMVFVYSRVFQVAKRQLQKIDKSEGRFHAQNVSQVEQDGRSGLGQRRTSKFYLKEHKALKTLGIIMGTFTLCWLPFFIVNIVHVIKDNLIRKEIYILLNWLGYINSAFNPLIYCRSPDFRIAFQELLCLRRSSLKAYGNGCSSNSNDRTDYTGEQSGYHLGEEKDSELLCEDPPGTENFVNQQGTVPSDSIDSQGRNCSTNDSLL
T1 sequence (Q28997 whole entry): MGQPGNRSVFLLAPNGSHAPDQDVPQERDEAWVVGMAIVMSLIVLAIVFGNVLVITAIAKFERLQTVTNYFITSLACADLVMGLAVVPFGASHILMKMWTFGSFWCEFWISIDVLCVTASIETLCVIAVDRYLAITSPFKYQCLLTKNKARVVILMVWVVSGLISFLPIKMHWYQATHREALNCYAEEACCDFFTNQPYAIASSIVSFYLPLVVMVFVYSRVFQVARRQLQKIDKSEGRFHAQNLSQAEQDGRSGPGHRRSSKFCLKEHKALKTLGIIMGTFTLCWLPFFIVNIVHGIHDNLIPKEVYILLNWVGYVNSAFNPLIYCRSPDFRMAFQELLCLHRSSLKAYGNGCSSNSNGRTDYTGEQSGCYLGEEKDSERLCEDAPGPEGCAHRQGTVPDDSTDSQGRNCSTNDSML

By EC50 is commonly meant the concentration that produces a half-maximal response. For `CC(CCc1cc(F)cc2cc[nH]c12)N[C@@H]1CCn2c(=O)[nH]c3cccc(c32)[C@H]1O` (mixture of isomers) [Example 1a, 6-{[3-(5-Fluoro-1H-indol-7-yl)-1-methylpropyl]amino}-7-hydroxy-4,5,6,7-tetrahydroimidazo[4,5,1-jk][1]benzazepin-2(1H)-one], the EC50 in experiment [1] is 1.4 nM; in experiment [2] it was 0.5 nM.

Turning to `CC(CCc1cc(F)cc2cc[nH]c12)N[C@@H]1CCn2c(=O)[nH]c3cccc(c32)[C@H]1O` (mixture of isomers) [Example 1b, 6-{[3-(5-Fluoro-1H-indol-7-yl)-1-methylpropyl]amino}-7-hydroxy-4,5,6,7-tetrahydroimidazo[4,5,1-jk][1]benzazepin-2(1H)-one], the values for the EC50 in experiment [1] and in experiment [2] were 1 nM and 0.7 nM, respectively.

Take `CC(CCc1ccc(C(=O)O)o1)N[C@@H]1CCn2c(=O)[nH]c3cccc(c32)[C@H]1O` (mixture of isomers) [Example 2, 5-(3-{[7-Hydroxy-2-oxo-1,2,4,5,6,7-hexahydroimidazo[4,5,1-jk][1]benzazepin-6-yl]amino}butyl)-2-furoic acid]: the EC50 in experiment [1] came to 31 nM; in experiment [2], 171 nM.

As to `Cc1[nH]c2ccccc2c1CCC(C)N[C@@H]1CCn2c(=O)[nH]c3cccc(c32)[C@H]1O` (mixture of isomers) [Example 3b, 7-Hydroxy-6-{[1-methyl-3-(2-methyl-1H-indol-3-yl)propyl]amino}-4,5,6,7-tetrahydroimidazo[4,5,1-jk][1]benzazepin-2(1H)-one], the figures for the EC50 in experiment [1] and in experiment [2] were 3 nM and 5.5 nM, respectively.

As for `C[C@@H](CCc1c[nH]c2ccccc12)N[C@@H]1CCn2c(=O)[nH]c3cccc(c32)[C@H]1O` (racemic) [Example 4c, 7-Hydroxy-6-{[3-(1H-indol-3-yl)-1-methylpropyl]amino}-4,5,6,7-tetrahydroimidazo[4,5,1-jk][1]benzazepin-2(1H)-one], the EC50 in experiment [1] came to 143 nM; in experiment [2], 103 nM.

For `CC(CCc1c[nH]c2ccc(F)cc12)N[C@@H]1CCn2c(=O)[nH]c3cccc(c32)[C@H]1O` (mixture of isomers) [Example 5b, Hydrochloride salt of 6-{[3-[5-Fluoro-1H-indol-3-yl]-1-methylpropyl]amino}-7-hydroxy-4,5,6,7-tetrahydroimidazo[4,5,1-jk][1]benzazepin-2(1)-one], the EC50 stood at 2.5 nM in experiment [1] and 1.1 nM in experiment [2].

As to `CC(CCc1cccc(=O)[nH]1)N[C@@H]1CCn2c(=O)[nH]c3cccc(c32)[C@H]1O` (mixture of isomers) [Example 7a, 7-Hydroxy-6-{[1-methyl-3-(6-oxo-1,6-dihydropyridin-2-yl)propyl]amino}-4,5,6,7-tetrahydroimidazo[4,5,1-jk][1]benzazepin-2(1H)-one], the EC50 in experiment [1] is 5.5 nM; in experiment [2] it was 4.6 nM.

For `CC(CCc1cccc(=O)[nH]1)N[C@@H]1CCn2c(=O)[nH]c3cccc(c32)[C@H]1O` (mixture of isomers) [Example 7c, 7-Hydroxy-6-{[1-methyl-3-(6-oxo-1,6-dihydropyridin-2-yl)propyl]amino}-4,5,6,7-tetrahydroimidazo[4,5,1-jk][1]benzazepin-2(1H)-one], the EC50 in experiment [2] was found to be 3.8 nM.

On to `CC(CC(C)(C)c1c[nH]c2ccccc12)N[C@@H]1CCn2c(=O)[nH]c3cccc(c32)[C@H]1O` (mixture of isomers) [Example 8, 7-Hydroxy-6-{[3-(1H-indol-3-yl)-1,3-dimethylbutyl]amino}-4,5,6,7-tetrahydroimidazo[4,5,1-jk][1]benzazepin-2(1H)-one], for which the concentration for a half-maximal effect (EC50) in experiment [1] was 6.1 nM; in experiment [2], 114 nM.

Take `CC(CCc1cn(C)c2ccccc12)N[C@@H]1CCn2c(=O)[nH]c3cccc(c32)[C@H]1O` (mixture of isomers) [Example 14b, 7-Hydroxy-6-{[1-methyl-3-(1-methyl-1H-indol-3-yl)propyl]amino}-4,5,6,7-tetrahydroimidazo[4,5,1-jk][1]benzazepin-2(1H)-one]: the EC50 in experiment [1] is 5.8 nM; in experiment [2] it was 8 nM.

`CC(CCc1cn(C)c2ccccc12)N[C@@H]1CCn2c(=O)[nH]c3cccc(c32)[C@H]1O` (mixture of isomers) [Example 14c, 7-Hydroxy-6-{[1-methyl-3-(1-methyl-1H-indol-3-yl)propyl]amino}-4,5,6,7-tetrahydroimidazo[4,5,1-jk][1]benzazepin-2(1H)-one]: the concentration giving a half-maximal response (EC50) turned out to be 4.2 nM in experiment [1] and 5.5 nM in experiment [2].

Take `CC(CCc1c[nH]c2ccc(OCc3ccccc3)cc12)N[C@@H]1CCn2c(=O)[nH]c3cccc(c32)[C@H]1O` (mixture of isomers) [Example 17, 6-({3-[5-(Benzyloxy)-1H-indol-3-yl]-1-methylpropyl}amino)-7-hydroxy-4,5,6,7-tetrahydroimidazo[4,5,1-jk][1]benzazepin-2(1H)-one]: the EC50 in experiment [1] was 33 nM; in experiment [2], 25 nM.

Regarding `CC(CCc1cn(Cc2ccccc2)c2ccccc12)N[C@@H]1CCn2c(=O)[nH]c3cccc(c32)[C@H]1O` (mixture of isomers) [Example 18, 6-{[3-(1-Benzyl-1H-indol-3-yl)-1-methylpropyl]amino}-7-hydroxy-4,5,6,7-tetrahydroimidazo[4,5,1-jk][1]benzazepin-2(1H)-one], the EC50 in experiment [1] turned out to be 98 nM; in experiment [2], 218 nM.

Take `CC(CC(C)(C)c1cn(C)c2ccccc12)N[C@@H]1CCn2c(=O)[nH]c3cccc(c32)[C@H]1O` (mixture of isomers) [Example 20, 6-{[1,3-Dimethyl-3-(1-methyl-1H-indol-3-yl)butyl]amino}-7-hydroxy-4,5,6,7-tetrahydroimidazo[4,5,1-jk][1]benzazepin-2(1H)-one]: the EC50 was 36 nM in experiment [1] and 157 nM in experiment [2].

On to `COc1ccc2[nH]cc(CCC(C)N[C@@H]3CCn4c(=O)[nH]c5cccc(c54)[C@H]3O)c2c1` (mixture of isomers) [Example 22, 7-hydroxy-6-{[3-(5-methoxy-1H-indol-3-yl)-1-methylpropyl]amino}-4,5,6,7-tetrahydroimidazo[4,5,1-jk][1]benzazepin-2(1H)-one], for which the half-maximal effective concentration (EC50) in experiment [1] turned out to be 53 nM; in experiment [2], 50 nM.

Consider `CC(CCc1nccs1)N[C@@H]1CCn2c(=O)[nH]c3cccc(c32)[C@H]1O` (mixture of isomers) [Example 24b, 7-Hydroxy-6-{[1-methyl-3-(1,3-thiazol-2-yl)propyl]amino}-4,5,6,7-tetrahydroimidazo[4,5,1-jk][1]benzazepin-2(1H)-one], for which the figures for the concentration for a half-maximal effect (EC50) in experiment [1] and in experiment [2] were 79 nM and 92 nM, respectively.

On to `CC(CCc1cnc(Cl)s1)N[C@@H]1CCn2c(=O)[nH]c3cccc(c32)[C@H]1O` (mixture of isomers) [Example 25, 6-{[3-(2-Chloro-1,3-thiazol-5-yl)-1-methylpropyl]amino}-7-hydroxy-4,5,6,7-tetrahydroimidazo[4,5,1-jk][1]benzazepin-2(1H)-one], for which the results for the EC50 in experiment [1] and in experiment [2] were 4.2 nM and 2.9 nM, respectively.

As for `CC(CCc1cscn1)N[C@@H]1CCn2c(=O)[nH]c3cccc(c32)[C@H]1O` (mixture of isomers) [Example 26, 7-Hydroxy-6-{[1-methyl-3-(1,3-thiazol-4-yl)propyl]amino}-4,5,6,7-tetrahydroimidazo[4,5,1-jk][1]benzazepin-2(1H)-one], the EC50 in experiment [1] was 742 nM; in experiment [2], 345 nM.

As to `CC(CCn1cnc2cc(F)cc(F)c21)N[C@@H]1CCn2c(=O)[nH]c3cccc(c32)[C@H]1O` (single isomer, unassigned) [Example 69], in experiment [1], the EC50 was found to be 0.4 nM.

In the case of `Cc1nnsc1CCC(C)N[C@@H]1CCn2c(=O)[nH]c3cccc(c32)[C@H]1O` (single isomer, unassigned) [Example 70], the concentration for a half-maximal effect (EC50) in experiment [1] was determined as 3.3 nM.

Turning to `CC(CCn1cnnc1)N[C@@H]1CCn2c(=O)[nH]c3cccc(c32)[C@H]1O` (single isomer, unassigned) [Example 71], in experiment [1], the EC50 came to 15.1 nM.

For the molecule `CC(CCc1cncnc1)N[C@@H]1CCn2c(=O)[nH]c3cccc(c32)[C@H]1O` (single isomer, unassigned) [Example 72], the EC50 in experiment [1] was determined as 2.7 nM.

Regarding `COc1cncc(CCC(C)N[C@@H]2CCn3c(=O)[nH]c4cccc(c43)[C@H]2O)c1` (single isomer, unassigned) [Example 73], the EC50 in experiment [1] came out at 0.8 nM.

For `CC(CCc1cnc(O)s1)N[C@@H]1CCn2c(=O)[nH]c3cccc(c32)[C@H]1O` (single isomer, unassigned) [Example 74], the EC50 in experiment [1] was found to be 4.7 nM.

Turning to `CC(CCn1nnc2ccccc21)N[C@@H]1CCn2c(=O)[nH]c3cccc(c32)[C@H]1O` (single isomer, unassigned) [Example 75], the EC50 in experiment [1] turned out to be 4.7 nM.

With `CC(CCn1cnc2cnccc21)N[C@@H]1CCn2c(=O)[nH]c3cccc(c32)[C@H]1O` (single isomer, unassigned) [Example 76], the EC50 in experiment [1] came out at 2 nM.

On to `CC(CCn1cnc2ncccc21)N[C@@H]1CCn2c(=O)[nH]c3cccc(c32)[C@H]1O` (single isomer, unassigned) [Example 77], for which the EC50 in experiment [1] amounted to 2.8 nM.

`Cc1nc2ccccc2n1CCC(C)N[C@@H]1CCn2c(=O)[nH]c3cccc(c32)[C@H]1O` (single isomer, unassigned) [Example 78]: in experiment [1], the concentration giving a half-maximal response (EC50) was determined as 1.2 nM.

With `CC(CCn1cnc2cc(F)c(F)cc21)N[C@@H]1CCn2c(=O)[nH]c3cccc(c32)[C@H]1O` (single isomer, unassigned) [Example 79], in experiment [1], the EC50 came out at 1 nM.

For `CC(Cc1c[nH]c2ccccc12)N[C@@H]1CCn2c(=O)[nH]c3cccc(c32)[C@H]1O` (stereo partly drawn) [Example 68, (6R,7R)-7-hydroxy-6-{[2-(1H-indol-3-yl)-1-methylethyl]amino}-4,5,6,7-tetrahydroimidazo[4,5,1-jk][1]benzazepin-2(1H)-one], the EC50 in experiment [1] was 4.9 nM.

Values taken from patent US20080267942A1, “BENZAZEPIN-2(1H)-ONE DERIVATIVES” (Pfizer Limited, priority 2006, published 2008).
